Experimental findings from patent publication US20240270762A1, “PENICILLIN-BINDING PROTEIN INHIBITORS” (priority 2021, published 2024) are described below.

In brackets after ≈: the same amount, converted by molar mass.

One assay concerns A. baumannii ATCC 17978. Description: microbe, parasite or virus in culture. Particulars: Acinetobacter baumannii, ATCC17978, read-out: MIC, A. baumannii ATCC 17978. The format is cell-based.
Assay [1] addresses T1, PBP3 from Escherichia coli (K-12) (Escherichia coli, UniProt P0AD68).
T1 construct: made in house
As to the kind of experiment: Bocillin-FL fluorescence polarization competition binding, E. coli PBP3. In a few lines: (§1)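 Purified PBP was preincubated with inhibitor (E. coli PBP3 1.5 μM, 30 min; P. aeruginosa PBP3 0.75 μM, A. baumannii PBP3 0.2 μM and PBP1a 1 μM, 15 min), then Bocillin-FL (0.1 μM; 0.05 μM for PBP1a) added and FP read up to 60 min. EC50 = 50% loss of bound probe.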

The subject of the next assay is A. baumannii CDC-0083. As to the kind of experiment: microbe, parasite or virus in culture. The format is cell-based. Particulars: Acinetobacter baumannii, CDC0083, read-out: MIC, A. baumannii CDC-0083.
In assay [2] the target is T2, PBP3 from Acinetobacter baumannii (ATCC 19606) (Acinetobacter baumannii, UniProt A0ABX6CK25).
T2 sequence (A0ABX6CK25 64-610): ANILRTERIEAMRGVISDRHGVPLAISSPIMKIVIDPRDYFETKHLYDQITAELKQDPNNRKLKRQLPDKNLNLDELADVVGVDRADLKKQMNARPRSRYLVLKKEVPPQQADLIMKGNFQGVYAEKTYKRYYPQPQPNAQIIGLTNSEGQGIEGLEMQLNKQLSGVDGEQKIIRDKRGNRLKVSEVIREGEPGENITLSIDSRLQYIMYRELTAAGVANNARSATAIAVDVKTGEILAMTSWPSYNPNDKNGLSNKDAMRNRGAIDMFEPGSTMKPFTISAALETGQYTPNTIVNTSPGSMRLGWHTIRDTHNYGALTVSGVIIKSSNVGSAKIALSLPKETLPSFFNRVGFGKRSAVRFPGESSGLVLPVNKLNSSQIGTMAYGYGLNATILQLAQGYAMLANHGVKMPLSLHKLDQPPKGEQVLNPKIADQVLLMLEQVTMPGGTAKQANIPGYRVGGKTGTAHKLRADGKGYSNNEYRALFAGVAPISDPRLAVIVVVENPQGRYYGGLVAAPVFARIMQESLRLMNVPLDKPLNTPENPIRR
As to the kind of experiment: Bocillin-FL fluorescence polarization competition binding, A. baumannii PBP3. Particulars: fluorescence polarization competition binding assay using Bocillin-FL; read-out: A. baumannii PBP3 Potency. In a few lines:
as §1

The test system of assay [3] is B. thailandensis ATCC 700388. As to the kind of experiment: microbe, parasite or virus in culture. As to conditions: Burkholderia thailandensis, ATCC700388, read-out: Minimum inhibitory concentration (MIC), B. thailandensis ATCC 700388. Type of assay: cell-based.
Assay [4] deals with P. aeruginosa (ΔmexAB-oprM). As to the kind of experiment: Broth microdilution MIC in iron-depleted CAMHB (IDM). Type of assay: cell-based. As to conditions: Pseudomonas aeruginosa; iron-depleted CAMHB (IDM); […]; read-out: Minimum inhibitory concentration, P. aeruginosa ΔmexAB-oprM.
The test system of another assay is P. aeruginosa CDC-0090. Description: microbe, parasite or virus in culture. Type of assay: cell-based. As to conditions: Pseudomonas aeruginosa, CDC0090, read-out: Minimum inhibitory concentration, P. aeruginosa CDC-0090.
Another assay relates to A. baumannii 1258916. As to the kind of experiment: microbe, parasite or virus in culture. The format is cell-based, Acinetobacter baumannii. As to conditions: Acinetobacter baumannii, 1258916, read-out: MIC, A. baumannii 1258916.
Another assay deals with P. aeruginosa CDC-0054. Description: microbe, parasite or virus in culture. The format is cell-based. Particulars: Pseudomonas aeruginosa, CDC0054, read-out: Minimum inhibitory concentration, P. aeruginosa CDC-0054.
The next assay relates to A. baumannii CDC-0045. As to the kind of experiment: microbe, parasite or virus in culture. Type of assay: cell-based. Particulars: Acinetobacter baumannii, CDC0045, read-out: MIC, A. baumannii CDC-0045.
Assay [5] deals with T3, PBP3 from Pseudomonas aeruginosa (PAO1) (Pseudomonas aeruginosa, UniProt G3XD46).
T3 construct: made in house
T3 sequence (G3XD46 whole entry): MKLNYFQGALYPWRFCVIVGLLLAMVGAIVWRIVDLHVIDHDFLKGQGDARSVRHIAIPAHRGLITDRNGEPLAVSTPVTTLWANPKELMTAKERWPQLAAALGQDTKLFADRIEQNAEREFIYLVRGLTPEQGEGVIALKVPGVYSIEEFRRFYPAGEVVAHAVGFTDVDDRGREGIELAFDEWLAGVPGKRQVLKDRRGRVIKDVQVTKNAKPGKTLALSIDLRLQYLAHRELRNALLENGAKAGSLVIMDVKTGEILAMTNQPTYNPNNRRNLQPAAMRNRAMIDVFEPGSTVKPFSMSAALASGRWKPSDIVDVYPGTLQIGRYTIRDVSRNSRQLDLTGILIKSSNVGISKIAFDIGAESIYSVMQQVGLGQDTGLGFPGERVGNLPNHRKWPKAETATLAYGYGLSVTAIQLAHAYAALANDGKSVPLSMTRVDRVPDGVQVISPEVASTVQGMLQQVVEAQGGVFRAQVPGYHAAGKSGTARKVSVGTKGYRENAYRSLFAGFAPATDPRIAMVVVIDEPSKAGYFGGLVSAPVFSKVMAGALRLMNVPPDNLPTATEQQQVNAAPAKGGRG
As to the kind of experiment: Bocillin-FL fluorescence polarization competition binding, P. aeruginosa PBP3. Particulars: Binding affinity to P. aeruginosa PBP3; fluorescence polarization competition binding assay using Bocillin-FL; read-out: P. aeruginosa PBP3 Potency. A digest of the protocol: as §1

T1 sequence (P0AD68 1-577): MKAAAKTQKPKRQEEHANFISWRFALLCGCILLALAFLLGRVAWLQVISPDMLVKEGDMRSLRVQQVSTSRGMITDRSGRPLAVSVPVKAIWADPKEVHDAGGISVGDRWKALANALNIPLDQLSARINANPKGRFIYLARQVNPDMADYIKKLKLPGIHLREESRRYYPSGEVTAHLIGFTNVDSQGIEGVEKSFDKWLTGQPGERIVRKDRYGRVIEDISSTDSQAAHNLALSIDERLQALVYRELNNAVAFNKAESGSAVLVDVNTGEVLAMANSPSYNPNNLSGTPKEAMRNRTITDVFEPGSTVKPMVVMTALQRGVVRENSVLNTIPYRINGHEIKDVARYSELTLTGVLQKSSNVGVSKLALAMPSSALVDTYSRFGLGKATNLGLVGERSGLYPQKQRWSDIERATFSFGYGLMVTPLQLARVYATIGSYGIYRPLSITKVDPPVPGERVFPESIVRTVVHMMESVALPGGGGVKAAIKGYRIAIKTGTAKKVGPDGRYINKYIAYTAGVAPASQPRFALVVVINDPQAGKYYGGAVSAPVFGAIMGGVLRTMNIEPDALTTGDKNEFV

For the compound `O=C(NCCCS(=O)(=O)N1CCN(C(=O)NC(C(=O)N[C@H]2Cc3ccc(F)c(C(=O)O)c3OB2O)c2cc(F)c(O)c(O)c2Cl)C1=O)Nc1cccc(O)c1` (stereo partly drawn) [Example 277, (3R)-3-(2-(2-chloro-5-fluoro-3,4-dihydroxyphenyl)-2-(3-((3-(3-(3-hydroxyphenyl)ureido)propyl)sulfonyl)-2-oxoimidazolidine-1-carboxamido)acetamido)-7-fluoro-2-hydroxy-3,4-dihydro-2H-benzo[e][1,2]oxaborinine-8-carboxylic acid], the MIC in the assay on A. baumannii ATCC 17978 was less than 1 µg/mL; in the assay with A. baumannii CDC-0083 it was less than 1 µg/mL; in [3], 32 to 64 µg/mL (≈ 39.5 to 78.9 µM); in assay [4] it was less than 1 µg/mL; in the assay with P. aeruginosa CDC-0090 it was 2 to 4 µg/mL (≈ 2.47 to 4.93 µM); in the assay on A. baumannii 1258916 it was 2 to 4 µg/mL (≈ 2.47 to 4.93 µM). In addition, the MIC in the assay on P. aeruginosa CDC-0054 and in the assay with A. baumannii CDC-0045 was 2 to 4 µg/mL (≈ 2.47 to 4.93 µM) in each case. The same compound returned an EC50 in assay [1] of less than 10 µM. Also, the IC50 in assay [2] and in [5] was less than 10 µM each time.

With `O=C(NCCCS(=O)(=O)N1CCN(C(=O)NC(C(=O)N[C@H]2Cc3ccc(F)c(C(=O)O)c3OB2O)c2cc(F)c(O)c(O)c2Cl)C1=O)Nc1cccnc1` (stereo partly drawn) [Example 278, (3R)-3-(2-(2-chloro-5-fluoro-3,4-dihydroxyphenyl)-2-(2-oxo-3-((3-(3-(pyridin-3-yl)ureido)propyl)sulfonyl)imidazolidine-1-carboxamido)acetamido)-7-fluoro-2-hydroxy-3,4-dihydro-2H-benzo[e][1,2]oxaborinine-8-carboxylic acid], the MIC was less than 1 µg/mL in the assay on A. baumannii ATCC 17978; less than 1 µg/mL in the assay on A. baumannii CDC-0083; 2 to 4 µg/mL (≈ 2.51 to 5.03 µM) in assay [3]; less than 1 µg/mL in assay [4]; 2 to 4 µg/mL (≈ 2.51 to 5.03 µM) with P. aeruginosa CDC-0090; less than 1 µg/mL in the assay with A. baumannii 1258916. For the same compound, the MIC in the assay on P. aeruginosa CDC-0054 was 2 to 4 µg/mL (≈ 2.51 to 5.03 µM); in the assay on A. baumannii CDC-0045, less than 1 µg/mL. Besides, in [1], the EC50 is less than 10 µM. The IC50 in assay [2] and in assay [5] was less than 10 µM throughout.

Take `O=C(NCCN1CCN(C(=O)N[C@@H](C(=O)N[C@H]2Cc3ccc(F)c(C(=O)O)c3OB2O)c2cc(F)c(O)c(O)c2Cl)C1=O)Nc1ccc(O)cc1` [Example 279, (R)-3-((R)-2-(2-chloro-5-fluoro-3,4-dihydroxyphenyl)-2-(3-(2-(3-(4-hydroxyphenyl)ureido)ethyl)-2-oxoimidazolidine-1-carboxamido)acetamido)-7-fluoro-2-hydroxy-3,4-dihydro-2H-benzo[e][1,2]oxaborinine-8-carboxylic acid]: the MIC is less than 1 µg/mL in the assay with A. baumannii ATCC 17978; less than 1 µg/mL in the assay with A. baumannii CDC-0083; less than 1 µg/mL in assay [3]; less than 1 µg/mL in [4]; 2 to 4 µg/mL (≈ 2.73 to 5.46 µM) in the assay on P. aeruginosa CDC-0090; less than 1 µg/mL in the assay on A. baumannii 1258916. Also, the MIC with P. aeruginosa CDC-0054 and in the assay on A. baumannii CDC-0045 was less than 1 µg/mL throughout. The compound further gave an EC50 in assay [1] of less than 10 µM. Moreover, the IC50 in assay [2] and in assay [5] was less than 10 µM in each case.

For the compound `O=C(NCCCN1CCN(C(=O)NC(C(=O)N[C@H]2Cc3ccc(F)c(C(=O)O)c3OB2O)c2cc(F)c(O)c(O)c2Cl)C1=O)c1ccc(O)cc1` (stereo partly drawn) [Example 280, (3R)-3-(2-(2-chloro-5-fluoro-3,4-dihydroxyphenyl)-2-(3-(3-(4-hydroxybenzamido)propyl)-2-oxoimidazolidine-1-carboxamido)acetamido)-7-fluoro-2-hydroxy-3,4-dihydro-2H-benzo[e][1,2]oxaborinine-8-carboxylic acid], the MIC with A. baumannii ATCC 17978 was less than 1 µg/mL; with A. baumannii CDC-0083, 2 to 4 µg/mL (≈ 2.73 to 5.47 µM); in assay [3], 2 to 4 µg/mL (≈ 2.73 to 5.47 µM); in assay [4], less than 1 µg/mL; in the assay with P. aeruginosa CDC-0090, 2 to 4 µg/mL (≈ 2.73 to 5.47 µM); in the assay on A. baumannii 1258916, less than 1 µg/mL. The MIC in the assay on P. aeruginosa CDC-0054 was 2 to 4 µg/mL (≈ 2.73 to 5.47 µM); in the assay on A. baumannii CDC-0045, less than 1 µg/mL. Besides, the concentration giving a half-maximal response (EC50) in [1] was in the range of 10 to 50 µM. Besides, the IC50 in [2] and in [5] was less than 10 µM in each case.

For `O=C(NCCCN1CCN(C(=O)NC(C(=O)N[C@H]2Cc3ccc(F)c(C(=O)O)c3OB2O)c2cc(F)c(O)c(O)c2Cl)C1=O)c1cccnc1` (stereo partly drawn) [Example 281, (3R)-3-(2-(2-chloro-5-fluoro-3,4-dihydroxyphenyl)-2-(3-(3-(nicotinamido)propyl)-2-oxoimidazolidine-1-carboxamido)acetamido)-7-fluoro-2-hydroxy-3,4-dihydro-2H-benzo[e][1,2]oxaborinine-8-carboxylic acid], the MIC in the assay on A. baumannii ATCC 17978 is less than 1 µg/mL; in the assay on A. baumannii CDC-0083, 8 to 16 µg/mL (≈ 11.2 to 22.3 µM); in [3], 2 to 4 µg/mL (≈ 2.79 to 5.58 µM); in assay [4], less than 1 µg/mL; in the assay on P. aeruginosa CDC-0090 it was 2 to 4 µg/mL (≈ 2.79 to 5.58 µM); in the assay with A. baumannii 1258916 it was less than 1 µg/mL. Besides, the figures for the MIC with P. aeruginosa CDC-0054 and in the assay on A. baumannii CDC-0045 were 8 to 16 µg/mL (≈ 11.2 to 22.3 µM) and less than 1 µg/mL, respectively. In addition, the half-maximal effective concentration (EC50) in assay [1] lay within 10 to 50 µM. Further, the IC50 in assay [2] and in assay [5] was less than 10 µM each time.

Regarding `O=C(NCCCN1CCN(C(=O)N[C@H](C(=O)N[C@H]2Cc3ccc(F)c(C(=O)O)c3OB2O)c2cc(F)c(O)c(O)c2Cl)C1=O)Nc1ccc(O)cc1` [Example 283, (R)-3-((S)-2-(2-chloro-5-fluoro-3,4-dihydroxyphenyl)-2-(3-(3-(3-(4-hydroxyphenyl)ureido)propyl)-2-oxoimidazolidine-1-carboxamido)acetamido)-7-fluoro-2-hydroxy-3,4-dihydro-2H-benzo[e][1,2]oxaborinine-8-carboxylic acid], the MIC (with A. baumannii ATCC 17978; in the assay on A. baumannii CDC-0083; in assay [3]; in assay [4]; with P. aeruginosa CDC-0090; in the assay with A. baumannii 1258916) was greater than 128 µg/mL throughout. The MIC with P. aeruginosa CDC-0054 and with A. baumannii CDC-0045 was greater than 128 µg/mL throughout. In assay [1], this compound registered an EC50 greater than 250 µM. The IC50 in assay [2] and in [5] was 50 to 250 µM each time.

With `O=C(NCCCN1CCN(C(=O)N[C@@H](C(=O)N[C@H]2Cc3ccc(F)c(C(=O)O)c3OB2O)c2cc(F)c(O)c(O)c2Cl)C1=O)Nc1ccc(O)cc1` [Example 284, (R)-3-((R)-2-(2-chloro-5-fluoro-3,4-dihydroxyphenyl)-2-(3-(3-(3-(4-hydroxyphenyl)ureido)propyl)-2-oxoimidazolidine-1-carboxamido)acetamido)-7-fluoro-2-hydroxy-3,4-dihydro-2H-benzo[e][1,2]oxaborinine-8-carboxylic acid], the MIC in the assay on A. baumannii ATCC 17978 was less than 1 µg/mL; with A. baumannii CDC-0083, 2 to 4 µg/mL (≈ 2.68 to 5.36 µM); in assay [3], less than 1 µg/mL; in [4] it was less than 1 µg/mL; in the assay with P. aeruginosa CDC-0090 it was less than 1 µg/mL; in the assay with A. baumannii 1258916, less than 1 µg/mL. Further, the MIC in the assay on P. aeruginosa CDC-0054 and with A. baumannii CDC-0045 was less than 1 µg/mL in each case. Moreover, the EC50 in [1] fell in the range of 10 to 50 µM. Also, the IC50 in assay [2] and in assay [5] was less than 10 µM in each case.

As for `O=C(NCCCN1CCN(C(=O)NC(C(=O)N[C@H]2Cc3ccc(F)c(C(=O)O)c3OB2O)c2cc(F)c(O)c(O)c2Cl)C1=O)Nc1ccncc1` (stereo partly drawn) [Example 285, (3R)-3-(2-(2-chloro-5-fluoro-3,4-dihydroxyphenyl)-2-(2-oxo-3-(3-(3-(pyridin-4-yl)ureido)propyl)imidazolidine-1-carboxamido)acetamido)-7-fluoro-2-hydroxy-3,4-dihydro-2H-benzo[e][1,2]oxaborinine-8-carboxylic acid], the MIC in the assay with A. baumannii ATCC 17978 is less than 1 µg/mL; in the assay on A. baumannii CDC-0083, less than 1 µg/mL; in assay [3], 2 to 4 µg/mL (≈ 2.73 to 5.47 µM); in assay [4], less than 1 µg/mL; in the assay on P. aeruginosa CDC-0090, 2 to 4 µg/mL (≈ 2.73 to 5.47 µM); with A. baumannii 1258916, 2 to 4 µg/mL (≈ 2.73 to 5.47 µM). The MIC with P. aeruginosa CDC-0054 lay in the range of 8 to 16 µg/mL (≈ 10.9 to 21.9 µM); in the assay on A. baumannii CDC-0045, 2 to 4 µg/mL (≈ 2.73 to 5.47 µM). Moreover, the EC50 in assay [1] was in the range of 10 to 50 µM. The IC50 in assay [2] and in [5] was less than 10 µM each time.
